# Measured values: patent US20250041387A1, “POLYPEPTIDE SEQUENCE OF KDM6B AND APPLICATION OF KDM6B IN REGULATING AND CONTROLLING FUNCTION OF MESENCHYMAL STEM CELL” (BEIJING STOMATOLOGICAL HOSPITAL, CAPITAL MEDICAL UNIVERSITY, priority 2021, published 2025)
# Several values for one entry are separate records, joined by “and”; a condition that tells them apart may be missing. Identical values can stand only once.
# Experiments:
# [1] = system: defected dorsal skin of mice; assay: Dorsal full-thickness skin defect in mice; format: in vivo, Balb/c mice; design: area of the defect region (dorsal skin): unit not given here; details: for area of the defect region (dorsal skin) / Healing rate (dorsal skin defect): individual mice; for Healing rate (dorsal skin defect): FIG. 18
# Protocol: Fifteen 8-month-old male Balb/c mice were randomly divided into three groups: PBS group, control group and 114 group, with five mice in each group.
# Before the establishment of the defect model, the mice were anaesthetized by injection of 4% chloral hydrate at 0.2 ml/20 g, and the skin was prepared. A circular full-thickness skin defect with a diameter of 6 mm on the back of the mice was created using a skin punch. On the day of the defect creation, the third day, the seventh day, the tenth day, the fourteenth day, the seventeenth day, and the twenty-first day after the defect creation, an equal amount of 100 μl of PBS, 10 μl/ml control peptide, and 10 μl/ml 114 peptide was separately injected at four equidistant sites at 2 mm from the edge of the defect.
# The defect region was photographed before each injection, and the area of the defect region was calculated by using Image-Pro plus software. The healing rate was calculated as: healing rate=(area of the defect region on day 0-area of the defect region on day 14/21)/area of the defect region on day 0.
# [2] = system: minipig periodontitis model with bone defect; assay: Minipig periodontitis model, clinical indicators (PD, AL, GR) and intraoral observation; format: in vivo, Wuzhishan minipigs; design: attachment loss (AL) / gingival recession (GR): unit not given here; details: for attachment loss (AL) / gingival recession (GR) / probing depth (PD): individual sides
# Source text: Method: An experimental minipig periodontitis model was established by creating bone defect and ligating silk threads. Specifically, minipigs were conventionally anaesthetized, and extraorally disinfected. The mandibular first permanent molar of the minipig was selected as the experimental tooth, which was subjected to intra-sulcal incision and vertical incision. The mucoperiosteal flap was opened, the mesia-buccal root of the mandibular first permanent molar of the minipig was exposed by bone removal, and a bone defect with a size of 3 mm×5 mm×7 mm was created. That is, 3 mm×5 mm×7 mm of the mesial proximal alveolar bone was removed, and the mesiobuccal root buccal bone plate and distal alveolar bone (3 mm×5 mm, the gingival depth was level with the mesial proximal surface) were removed. The suture in situ was performed. The experimental tooth neck was ligated with silk threads. […] The successful establishment of periodontal bone defect model was verified by CT imaging and clinical examination.
# 12 Wuzhishan minipigs were used to establish periodontitis model, with a total of 24 sides, which were randomly divided into 3 groups. Each side was injected with a drug at an amount of 60 μl. Group 1: flap surgery with scraping+injection of sterile saline after modeling (untreated control group); group 2: flap surgery with scraping+injection of control polypeptide after modeling (control group); group 3: flap surgery with scraping+injection of bioactive polypeptide 114 after modeling (experimental group).
# (§1) Drug injection treatment was performed 4 weeks after the modeling operation. The effect of bioactive polypeptide 114 on the regeneration and repair capacity of defected tissues mediated by stem cells in minipigs of periodontitis was assessed by comparing the clinical indicators and imaging examination after modeling (−4 w), 4 weeks after modeling without drug injection (0 w) and 3 months after drug treatment (12 w).
# Clinical indicators (PD, AL and GR) detection and CT imaging were performed before the experiment, after modeling (−4 w) and 3 months after treatment (12 w).
# Periodontal probing depth (PD): The depth of the periodontal pocket on the mesiobuccal side of the tooth was recorded at a probing pressure of 20-25 g.
# Gingival recession (GR): The distance from the cemento-enamel junction to the gingival margin was measured using a periodontal probe. If there was gingival recession, the cementoenamel junction was exposed, and the gingival margin was located at the root of the cementoenamel junction, then the distance between the two was recorded as a positive value; if there was no gingival recession, the gingival margin was located at the crown of the cementoenamel junction, then the distance between the two was recorded as a negative value.
# Attachment loss (AL): The degree of attachment loss was determined by subtracting GR from the periodontal pocket depth. If the two numbers were subtracted to zero, or the cementoenamel junction cannot be detected, it means there was no attachment loss. If the gingival recession caused the gingival margin to locate at the root of the cementoenamel junction, the two numbers were added to obtain the degree of the attachment loss. • 2.1 Probing depth (PD) was shown in Table 17 and FIG. 10.
# [3] = system: OVX mouse of osteoporosis model; assay: OVX mouse osteoporosis model, micro-CT of distal femur; format: in vivo, C57BL/6 mice; details: OVX mice, 10 mg/kg intraperitoneally for 3 months from 6 weeks after ovary removal, individual mice, FIG. 19B, listed as 114 peptide
# Source text: Twenty five 3-month-old C57BL/6 mice were purchased from Vital River and randomly divided into sham operation group, OVX group, PBS group, control peptide group and 114 peptide group, with five mice in each group. The osteoporosis model was established by removing bilateral ovaries in OVX, PBS, control peptide and 114 peptide groups. In the sham operation group, ovaries were not removed. 6 weeks after ovary removal, the mice were intraperitoneally injected with control peptide and peptide 114 at 10 mg/kg for continuous 3 months, and then sacrificed. For the distal femur, the left distal femur of each mouse was scanned ex vivo using a micro-CT system. Each segment of bone trabeculae was selected for segmentation, and subjected to 3D reconstruction. BMD was calculated.
# [4] = system: minipig periodontitis model with bone defect; assay: Minipig periodontitis model, new bone volume by CBCT three-dimensional reconstruction; format: in vivo, Wuzhishan minipigs; details: week 12 after injection, 60 μl per side; individual sides; FIG. 9; listed as 114 peptide
# Source text: Method: An experimental minipig periodontitis model was established by creating bone defect and ligating silk threads. Specifically, minipigs were conventionally anaesthetized, and extraorally disinfected. The mandibular first permanent molar of the minipig was selected as the experimental tooth, which was subjected to intra-sulcal incision and vertical incision. The mucoperiosteal flap was opened, the mesia-buccal root of the mandibular first permanent molar of the minipig was exposed by bone removal, and a bone defect with a size of 3 mm×5 mm×7 mm was created. That is, 3 mm×5 mm×7 mm of the mesial proximal alveolar bone was removed, and the mesiobuccal root buccal bone plate and distal alveolar bone (3 mm×5 mm, the gingival depth was level with the mesial proximal surface) were removed. The suture in situ was performed. The experimental tooth neck was ligated with silk threads. […]
# as §1, with “w). […]” for “w).”
# [5] = system: defected palatal mucosa of mice; assay: Palatal mucosa defect in mice; format: in vivo, Balb/c mice; details: for area of unhealed defected palatal mucosa: individual mice, FIG. 16
# [6] = 0 w, 4 weeks after modeling without drug injection, listed as 114 peptide
# [7] = 12 w after injection, listed as 114 peptide
substance,measurement,setting,value
FITC-(Acp)-ADLTISHCAADVVRAYGRKKRRQRRR [peptide 114],area of the defect region (dorsal skin),[1]; Day 0,6226 and 6554 and 6917 and 5532 and 4700
same,area of the defect region (dorsal skin),[1]; Day 10,1396 and 3701 and 2313 and 983 and 1816
same,Healing rate (dorsal skin defect),[1]; Day 10,0.7758 and 0.4353 and 0.6656 and 0.8223 and 0.6136
same,area of the defect region (dorsal skin),[1]; Day 14,681 (2×) and 722 and 486 and 715
same,Healing rate (dorsal skin defect),[1]; Day 14,0.8906 and 0.8898 and 0.9015 and 0.9121 and 0.8479
same,healing of defected dorsal skin (observation),"[1]; days 0 and 14, compared to PBS and control peptide groups, FIG. 17",significant healing
same,attachment loss (AL),[2]; [6],9.5 (3×) and 9 and 12 (2×)
same,gingival recession (GR),[2]; [6],2.5 (3×) and 1 (2×) and 0.5 and 3 and 4.5
same,probing depth (PD),[2]; [6],7.5 (3×) and 8.5 and 7 and 8 and 9 (2×)
same,attachment loss (AL),[2]; [7],significantly lower and 3 and 2.5 and 1.5 and 4
same,gingival recession (GR),[2]; [7],significantly lower and 0.5 and 1
same,probing depth (PD),[2]; [7],significantly lower and 2.5 and 2 and 0.5 and 1 and 3
same,mesenchymal stem cells-mediated regeneration of periodontal tissue,"[2]; CT imaging, bone volume analysis and clinical examination",promoted
same,restoration effect of soft tissues (intraoral images),"[2]; week 12 after injection, FIG. 14",better
same,probing depth (PD),"[2]; −4 w, before drug injection, FIG. 10, listed as 114 peptide",1 (7×) and 2
same,gingival recession (GR),"[2]; −4 w, before drug injection, FIG. 12",0
same,bone density (BMD) of femoral bone trabeculae,[3],significant up-regulation and 0.1440 and 0.1242 and 0.1416 and 0.1071 and 0.1137
same,new bone formation volume,[4],better and higher and 101.99 mm^3 and 80.68 mm^3 and 79.08 mm^3 and 80.48 mm^3 and 76.48 mm^3 and 85.49 mm^3
same,healing of defected palatal mucosa (observation),"[5]; compared to PBS group and control peptide group, FIG. 15",obviously healed
same,area of unhealed defected palatal mucosa,[5]; day 14,5.782 and 7.254 and 8.231 and 5.52 and 6.401
same,area of unhealed defected palatal mucosa,[5]; day 21,2.259 and 0.3319 and 1.964 and 2.33 and 2.213
